Data taken from patent US9566290B2, “Boron-containing small molecules” (Anacor Pharmaceuticals, Inc., priority 2005, dated 2017).
≈ marks a conversion by molar mass, not a printed value. One block for each compound: values may come before it.

Legend:
[1] = tested on: bacterial isoleucyl-tRNA synthetases; settings: cited from earlier work
[2] = Water solubility (table of physicochemical properties)
[3] = type: in vitro ADME, human
Procedure: C10, 5-fluoro-1,3-dihydro-1-phenyl-2,1-benzoxaborole, C1, and 5-fluoro-1,3-dihydro-1-(3-hydroxymethylphenyl)-2,1-benzoxaborole, formulated at 10% w/v in ethanol, were tested. A single aliquot (10 μl) of each formulation was dosed to the top of human nail plates using the nail penetration procedure described below, and allowed to stand for 3-days. The dosed area was washed, and then the cotton ball bed supporting the nail and the nail samples were collected at the end of the incubation period, stored at 4° C. and analyzed for drug using LC/MS/MS.
Details of the nail incubation have been previously described^9, 10. […] The supporting cotton ball under the nail was wetted by normal saline providing moisture for the nail plate, and the degree of hydration was monitored and controlled during the experiment. […]
LC/MS/MS (API3000, Applied Biosystems, Foster City, Calif.) was used to quantitate the amounts of non-radiolabeled oxaboroles, C10, 5-fluoro-1,3-dihydro-1-phenyl-2,1-benzoxaborole, C1, and 5-fluoro-1,3-dihydro-1-(3-hydroxymethylphenyl)-2,1-benzoxaborole in samples from the nail penetration studies. […] After centrifugation, the filtrate from the cotton ball samples was transferred to autosampler vials and analyzed by LC/MS/MS. […]

[4] = Nail penetration, 14-day dosing of radiolabeled compound (Hui protocol); type: in vitro ADME; settings: washing, nail samples and supporting bed cotton ball samples; 14-day treatment
Procedure: Two nail penetration studies were performed based on the protocol in Hui et al., Journal of Pharmaceutical Sciences, 91(1): 189-195 (2002) (“Hui protocol”). The purpose of this study was to determine and compare the penetration and distribution of C10 in vehicle into the human nail plate in vitro relative to 8% ciclopirox w/w in commercial lacquer (Penlac®).
The study was composed of two groups. The compositions (weight %) of the dosage formulations are as follows: […]
Healthy human finger nail plates were collected from adult human cadavers and stored in a closed container at 0-4° C. Before the experiment, the nail plates were gently washed with normal saline to remove any contamination, then re-hydrated by placing them for three hours on a cloth wetted with normal saline. The nail samples were randomly selected into four groups.
Radioactivity of each group is approximately 0.19±0.01 and 0.22±0.03 μCi/10 μL solutions respectively, for ^14C—C10 (group A), and ^14C-ciclopirox (group C).
Surface washing was started in morning 10 min prior to next dosing, the surface of the nail was washed with cotton tips in a cycle, as follows:
A Teflon one-chamber diffusion cell (PermeGear, Inc., Hellertown, Pa.) was used to hold each nail. To approximate physiological conditions, a small cotton ball wetted with 0.1 mL normal saline was placed in the chamber to serve as a nail bed and provide moisture for the nail plate. Every 3 days, 0.1 mL normal saline was injected through the inlet into the chamber to keep the cotton ball wet. The nail plate was placed on a ledge inside the receptor (1.0 cm in diameter and 0.5 cm high). The ventral (inner) surface of the nail was placed face down and rested on the wet cotton ball. The cells were placed on a platform in a large glass holding tank filled with saturated sodium phosphate solution to keep the cells at a constant humidity of 40%.
After completion of the incubation phase, the nail plate was transferred from the diffusion cell to a clean copper nail holder for sampling process. The nail plate was inverted so that the ventral (nail bed) surface now faced up and the dorsal (outer) dosed surfaced faced down. The copper nail holder has an opening as it sits on top of the stage. When the sampling process initiated, the coarse adjustment was adjusted to move the position of the stage until the nail plate was just touching the tip of the cutter. Then the drill was turned on and the fine adjustment was turned to push the stage closer to the drill, removing a nail core sample. After the above process, approximate 0.40-0.50 mm in depth and 7.9 mm in diameter nail pulverized samples were harvested from the center of the ventral (nail bed) surface of the nail.
The powdered nail samples were collected into a glass scintillation vial and weighted. Aliquots of 5.0 mL Packard soluene-350 (Packard Instrument Company, Meriden, Conn.) was added to the scintillation vial to dissolve the powder. The upper part, the intermediate and dorsal layers of the center of the nail, including the area of application of the dose was cut in the same diameter as the sampled area and was then placed into a glass scintillation vial with 5.0 mL packard soluene-350. The rest of the nail was also placed in a glass scintillation vial with 5.0 mL packard soluene-350.
All radioactivity measurements were conducted with a Model 1500 Liquid Scintillation Counter (Packard Instrument Company, Downer Grove, Ill.). The counter was audited for accuracy using sealed samples of quenched and unquenched standards as detailed by the instrument manual. The ^14C counting efficiency is equal to or greater than 95%. All nail samples pre-treated with packard soluene-350 were incubated at 40° C. for 48 hours followed by the addition of 10 mL scintillation cocktail (HIONIC-FLUOR, Packard Instrument Company, Meriden, Conn.). […]

[5] = tested on: Saccharomyces cerevisiae strain ATCC 201388; assay: MIC (NCCLS M27, YPD or synthetic defined media), haploid parental strain; type: cell-based; settings: Saccharomyces cerevisiae, ATCC201388, Table 2; ATCC201388; read-out: MIC
Procedure: (§1) The haploid Saccharomyces cerevisiae strain ATCC 201388 was used in the selection of C10 resistant mutants. Spontaneous and EMS-induced resistant mutants were isolated from YPD agar plates containing 4×, 8×, 16×MIC of C10. All minimal inhibitory concentrations (MIC) were determined using NCCLS protocol M27 with the exception of using YPD or synthetic defined media. All yeast and molecular genetic manipulations were essentially performed as described by Guthrie C., et al., Methods in Enzymology, 350: Part B, (2002).
(§2) The minimal inhibitory concentration (MIC) was essentially performed following the NCCLS guidelines outlined in the M27 protocol with the exception of using YPD or synthetic defined media (SDM).

[6] = tested on: S. cerevisiae C10 resistant mutants (CDC60 editing domain mutations); assay: MIC (NCCLS M27), spontaneous and EMS induced C10 resistant mutants; type: cell-based, Saccharomyces cerevisiae; settings: for MIC: Saccharomyces cerevisiae, Table 2
Procedure: as §1
Resistant mutants appeared after 2 d incubation at 30° C. Frequency of resistance was determined by dividing the number of resistant mutants by the total number of cells plated as determined by plating dilutions of the overnight culture on YPD plates.
A 2.5 mL of the overnight culture, which was grown in YPD media, was centrifuged at 700×g for 5 minutes. The cell pellet was resuspended in 10 mL 50 mM potassium phosphate buffer, pH 7.0. The cell suspension was centrifuged again and the cell pellet was resuspended in phosphate buffer to obtain a cell density of 5×10^7 cells/mL as determined by counting the cells using a Petroff Hausser Counting Chamber (Horsham, Pa. USA). The cell suspension was shaken with 300 μL of EMS (Alfa Aesar, Ward Hill, Mass., USA) for 30 min. at 30° C. The mutagenesis was stopped by adding 10% (w/v) sodium thiosulfate (Sigma-Aldrich, St. Louis, Mo., USA), and the cells were pelleted by centrifugation at 700×g for 5 min. and resuspended in 1 mL sterile H2O. This was repeated once more before the cells were plated on YPD agar plates containing 1.6 μg/mL of C10.
as §2

Structure (SMILES): C/C(=C\C(=O)OCCCCCCCCC(=O)O)C[C@@H]1OC[C@H](C[C@@H]2O[C@H]2[C@@H](C)[C@H](C)O)[C@@H](O)[C@H]1O [Mupirocin, mupirocin]
activity against the human homolog versus bacterial isoleucyl-tRNA synthetases (times less active) [1]: more than 1,000 times

solubility [2]: > 100 µg/mL
Structure (SMILES): OB1OCc2cc(Cl)ccc21 [C1, 5-chlorobenzo[c][1,2]oxaborol-1(3H)-ol]

Structure (SMILES): Cc1cc(C2CCCCC2)n(O)c(=O)c1 [ciclopirox]
penetration of the nail plate, in words [3]: penetrates the nail plate poorly | Cumulative radioactivity recoveries of carbon-14 [4]: 89±1.56% of applied dose | MIC [5]: 0.5 µg/mL (≈ 2.41 µM) | resistance of C10 resistant mutants to other antifungals, in words [6]: not resistant | MIC ([6]; C10 resistant mutant (C)): 0.5 µg/mL (≈ 2.41 µM) | MIC ([6]; C10 resistant mutant (G)): 0.5 µg/mL (≈ 2.41 µM) | MIC ([6]; C10 resistant mutant (H)): 0.5 µg/mL (≈ 2.41 µM)
